Source: patent US20230329245A1, “COMPOSITIONS AND METHODS OF USE THEREOF” (Curie Co. Inc., priority 2020, published 2023)
Several values for one entry are separate records, joined by “and”; a condition that tells them apart may be missing. Identical values can stand only once. Like-named read-outs stand apart in the source and are kept apart here.

Legend:
Type in all cases: cell-based
[1] = system: E. coli ATCC 8739; assay: Growth inhibition of E. coli culture in LB (OD600 / BacTiter-Glo); settings: for growth inhibition / growth inhibition in the presence of 400 μg/mL Tgase SEQ ID NO: 6 / inhibition at 500 µg/mL / inhibition at 3000 µg/mL: E. coli ATCC 8739; for inhibition at 500 µg/mL / inhibition at 3000 µg/mL: Escherichia coli, ATCC8739
Method: (§1) For MIC determination of bacterial cultures, E. coli ATCC 8739, DH5-alpha, DH10-beta, and B. subtilis BGSC 1A1276 was grown overnight (16-18 hours) in LB broth at 37° C. The following day, the cell density of the saturated cultures was calculated using OD600 and cultures were diluted to 10^4 to 10^6 CFU/mL in sterile LB media to generate the inoculum, and 90 μL of the inoculum was combined with 10 μL of serially diluted Tgase SEQ ID NO:1 at a range of 0.0001-0.01 weight percent in the presence or absence of 0.003% lysozyme (100-fold lower than the effective concentration). Growth curves were measured by OD600 on a BioTek® Synergy Plate Reader. Optionally, the following day, a cell viability assay such as BacTiter-Glo™ (Promega®) following manufacturer's protocols) could be used to assess cell viability. A decrease in OD600 or luminescence indicated a decrease in cell viability. Results are presented as a percent reduction in cell count relative to an untreated culture. All test conditions were performed in triplicate.
E. coli ATCC 8739 was grown overnight in LB broth at 37° C. The following day, the cell density of the saturated cultures was calculated using OD600 and cultures were diluted to 10^4 to 10^6 CFU/mL in sterile LB media to generate the inoculum, and 90 μL of the inoculum was combined with 10 μL of serially diluted Tgase SEQ ID NO:6 at a range of 0.001-0.1 weight percent in the presence or absence of chemical preservatives at concentrations above and below the calculated MIC value. A single concentration (at the MIC) of the chemical preservative and static concentrations of Tgase SEQ ID NO:6 (400 μg/mL, 0.04% w/v) are presented in Table 8 as representative examples. Growth curves were measured by OD600 on a BioTek® Synergy Plate Reader and a cell viability assay (BacTiter-Glo™, Promega®, following manufacturer's protocols) was used to assess cell viability. A decrease in OD600 or luminescence indicated a decrease in cell viability. Results are presented as a percent reduction in cell count relative to an untreated culture. […]

[2] = system: E. coli ATCC 8739; assay: MIC determination, E. coli
Method: (§2) A variant form of Streptomyces mobaraensis transglutaminase having the amino acid sequence depicted in SEQ ID NO:6 was prepared by literature methods with a hexa-his-tag to aid in purification (Javitt, et al. (2017) BMC Biotechnol. 17:23). The cells were grown in shake flasks, lysed by homogenization, and the Tgase variant (SEQ ID NO:6) was isolated from the cell debris by centrifugation. The resulting semi-purified enzyme (clarified lysate) were compared on an SDS-PAGE gel, by spectroscopy, and activity for concentration of active enzyme. The Tgase variant (SEQ ID NO:6) was further purified by affinity column on a Ni-IMAC resin prior to MIC assay. Tgase activity was measured in the examples herein using a colorimetric hydroxamate activity assay (Folk and Cole (1965) J Biol Chemistry 240(7):2951-2960). The enzyme was diluted to a working stock concentration of 2 mg/mL in CAMHB or RPMI media (bacterial or fungal media). This was then 2-fold serial diluted ten times in the appropriate media in a 96-well master plate to generate 2× starting concentrations for MIC testing.
(§3) Strains were acquired from the American Type Culture Collection (ATCC) (Manassas, VA) and maintained as −80° C. frozen glycerol stocks: S. aureus ATCC 6538, E. coli ATCC 8739, P. aeruginosa ATCC 9027, C. albicans ATCC 10231, and A. brasiliensis ATCC 16404. B. subtilis BGSC 1A1276 was purchased from the Bacillus Genetic Stock Center (BGSC) (Columbus, OH) and maintained as −80° C. frozen glycerol stock. Cation-adjusted Mueller-Hinton broth (CAMHB) at pH 7.3 was used for testing with bacterial species (unless otherwise noted), while RPMI 1640 media buffered with 0.165 M MOPS at pH 7.0 was used for testing with all fungal species.
For MIC determination, bacterial strains (S. aureus ATCC 6538, E. coli ATCC 8739, P. aeruginosa ATCC 9027) were grown overnight on Tryptic Soy Agar (TSA) plates at 37° C. A few colonies of each strain were collected with a sterile swab and used to make a McFarland 0.5 standard solution (approximately 1×10^8 CFU/mL) in sterile PBS. The McFarland solution was then diluted 1:100 in CAMHB to generate the inoculum, and 50 μL of this inoculum was combined with 50 μL of the 2× test article in a 96-well plate for a final concentration of 1×. All test conditions were performed in duplicate. The bacterial-strain MIC 96-well plates were incubated at 37° C. for 18 to 20 hours. MIC is defined as the lowest concentration of a compound in which no visible growth is observed.

[3] = system: S. aureus ATCC 6538; assay: MIC determination, S. aureus; settings: CAMHB pH 7.3, 37° C., 18 to 20 hours, duplicate
Method: as §2
Strains were acquired from the American Type Culture Collection (ATCC) (Manassas, VA) and maintained as −80° C. frozen glycerol stocks: S. aureus ATCC 6538, E. coli ATCC 8739, P. aeruginosa ATCC 9027, C. albicans ATCC 10231, and A. brasiliensis ATCC 16404. […]

[4] = system: C. albicans ATCC 10231; assay: MIC determination, C. albicans; settings: RPMI 1640 pH 7.0, 37° C., 24 to 48 hours, duplicate
Method: as §2, with “testing. […]” for “testing.”
(§4) C. albicans MIC 96-well plate was incubated for 37° C. for 24 to 48 hours. […] After incubation, all 96-well plates were examined visually and on a spectrophotometer at absorbance OD650. […]

[5] = system: P. aeruginosa ATCC 9027; assay: MIC determination, P. aeruginosa; settings: CAMHB pH 7.3, 37° C., 18 to 20 hours, duplicate
Method: as §2, §3
For MIC determination, bacterial strains (S. aureus ATCC 6538, E. coli ATCC 8739, P. aeruginosa ATCC 9027) were grown overnight on Tryptic Soy Agar (TSA) plates at 37° C. A few colonies of each strain were collected with a sterile swab and used to make a McFarland 0.5 standard solution (approximately 1×10^8 CFU/mL) in sterile PBS. […]

[6] = system: A. brasiliensis ATCC 16404; assay: MIC determination, A. brasiliensis; settings: RPMI 1640 pH 7.0, 25° C., up to 7 days, duplicate
Method: as §2, with “testing. […]” for “testing.”
as §4

[7] = system: B. subtilis BGSC 1A1276; assay: Growth reduction of B. subtilis culture (OD600 / BacTiter-Glo)
Method: as §1
(§5) Yeast or bacterial starter cultures were grown as described previously. Tgase (SEQ ID NO:6) was added to each culture at 0.001-1 weight percent. The cultures were grown overnight at 30° C.-37° C. and growth curves were measured by a BioTek® Synergy Plate Reader.

[8] = system: C. albicans ATCC 10231; assay: Growth reduction of C. albicans culture (OD600 / BacTiter-Glo)
Method: For MIC determination of yeast cultures, C. albicans ATCC 10231 was grown overnight (24 hours) in YPD media at 30° C. The following day, the cell density of the saturated cultures was calculated using OD600 and cultures were diluted to 10^4 to 10^6 CFU/mL in sterile YPD media to generate the inoculum, and 90 μL of the inoculum was combined with 10 μL of serially diluted Tgase SEQ ID NO:1 at a range of 0.0001-0.01 weight percent. The cultures were grown overnight at 30° C. and growth curves were measured by OD600 on a BioTek® Synergy Plate Reader. Optionally, the following day, a cell viability assay such as BacTiter-Glo™ (Promega®) following manufacturer's protocols) could be used to assess cell viability. A decrease in OD600 or luminescence indicated a decrease in cell viability. Results are presented as a percent reduction in cell count relative to an untreated culture. All test conditions were performed in triplicate.
as §5

[9] = CAMHB pH 7.3, 37° C., 18 to 20 hours, duplicate
[10] = Escherichia coli, ATCC8739, read-out: Concentration (MIC values; single concentration at the MIC of the chemical preservative)

Question: Which results are given for `Cn1sccc1=O` [MIT, Methylisothiazolinone]?
Answer: growth inhibition ([1]; 150 μg/mL): 98.7%; growth inhibition in the presence of 400 μg/mL Tgase SEQ ID NO: 6 ([1]; 150 μg/mL preservative + 400 μg/mL Tgase SEQ ID NO: 6): 99.8%; Concentration (MIC values; single concentration at the MIC of the chemical preservative) [2]: 150 µg/mL

Question: Which results are given for `O=C([O-])c1ccccc1.[Na+]` [Sodium benzoate, sodium benzoate]?
Answer: MIC [3]: 10,000 μg/mL; MIC [4]: >20,000 μg/mL; growth inhibition ([1]; 10,000 μg/mL): 99.85%; growth inhibition in the presence of 400 μg/mL Tgase SEQ ID NO: 6 ([1]; 10,000 μg/mL preservative + 400 μg/mL Tgase SEQ ID NO: 6): 99.97%; MIC [5]: 10,000 μg/mL; MIC [6]: 2,500 μg/mL and 1,250 μg/mL; Concentration (MIC values; single concentration at the MIC of the chemical preservative) [2]: 10,000 μg/mL; MIC [2, 9]: 10,000 μg/mL

Question: For `CCCCCCC(O)CO` (centres unmarked) [1,2-octandiol], which inhibition at 500 µg/mL ([1]; 500 μg/mL preservative + 400 μg/mL Tgase SEQ ID NO: 6, read-out: growth inhibition in the presence of 400 μg/mL Tgase SEQ ID NO: 6) is on record?
Answer: 99.3%

Question: What about the inhibition at 500 µg/mL ([1]; 500 μg/mL, read-out: growth inhibition) of the same molecule?
Answer: 97.8%

Question: What about the MIC [2, 10] of the same molecule?
Answer: 500 µg/mL

Question: For `CCCCC(O)CO` (centres unmarked) [1,2-hexandiol], which inhibition at 3000 µg/mL ([1]; 3,000 μg/mL preservative + 400 μg/mL Tgase SEQ ID NO: 6, read-out: growth inhibition in the presence of 400 μg/mL Tgase SEQ ID NO: 6) is on record?
Answer: 99.5%

Question: And the inhibition at 3000 µg/mL ([1]; 3,000 μg/mL, read-out: growth inhibition)?
Answer: 97.9%

Question: And the MIC [2, 10]?
Answer: 3000 µg/mL

Question: Benzalkonium chloride was tested. Which MIC [4] did it give?
Answer: 3.91 µg/mL

Question: What about the growth inhibition ([1]; 16 μg/mL) of the same molecule?
Answer: 99.7%

Question: And the “growth inhibition in the presence of 400 μg/mL Tgase SEQ ID NO: 6” value ([1]; 16 μg/mL preservative + 400 μg/mL Tgase SEQ ID NO: 6)?
Answer: 99.94%

Question: And the MIC [5]?
Answer: 62.5 µg/mL and 31.25 µg/mL

Question: What about the “Concentration (MIC values; single concentration at the MIC of the chemical preservative)” value [2] of the same molecule?
Answer: 16 µg/mL

Question: And the MIC [2, 9]?
Answer: 15.63 µg/mL

B1: Tgase (SEQ ID NO: 1): wild-type Streptomyces mobaraensis transglutaminase, mature form, amino acid sequence SEQ ID NO:1 (protein, listed as Streptomyces mobaraensis)
chain: DSDDRVTPPAEPLDRMPDPYRPSYGRAETVVNNYIRKWQQVYSHRDGRKQQMTEEQREWLSYGCVGVTWVNSGQYPTNRLAFASFDEDRFKNELKNGRPRSGETRAEFEGRVAKESFDEEKGFQRAREVASVMNRALENAHDESAYLDNLKKELANGNDALRNEDARSPFYSALRNTPSFKERNGGNHDPSRMKAVIYSKHFWSGQDRSSSADKRKYGDPDAFRPAPGTGLVDMSRDRNIPRSPTSPGEGFVNFDYGWFGAQTEADADKTVWTHGNHYHAPNGSLGAMHVYESKFRNWSEGYSDFDRGAYVITFIPKSWNTAPDKVKQGWP
Question: With B1 as the molecule, how does the “Fold improvement in enzyme efficacy” value ([7]; Tgase (SEQ ID NO: 1) alone = 1) read?
Answer: 1

Question: And the “growth inhibition (in words)” value ([7]; Tgase alone)?
Answer: partially inhibited

Question: What about the “Percent Growth Reduction” value ([7]; enzyme concentration 960 ug/mL) of the same molecule?
Answer: 99.17%

Question: And the “growth inhibition (in words)” value ([7]; upon adding a cell membrane disruptor, lysozyme)?
Answer: Full inhibition

Question: And the growth inhibition ([1]; 960 μg/mL)?
Answer: 0.0%

Question: What about the antimicrobial activity ([1]; gram negative E. coli ATCC 8739, DH5-alpha and DH10-beta, under the concentrations evaluated) of the same molecule?
Answer: little or no detectable antimicrobial activity

Question: And the “Fold improvement in enzyme efficacy” value ([8]; C. albicans ATCC 10231, Tgase (SEQ ID NO: 1) = 1)?
Answer: 1

Question: And the “Percent Growth Reduction” value ([8]; C. albicans ATCC 10231, enzyme concentration 800 ug/mL)?
Answer: 83.11%

Question: And the “growth inhibition (in words)” value ([8]; C. albicans, Tgase alone)?
Answer: partially inhibited
